Where a SMILES comes first, the peptide text is derived from it. Bridges are numbered along the chain shown (N, C = ends). [ ]: non-standard residue; d: D form. Tyr(3-F) = N[C@@H](Cc1ccc(O)c(F)c1)C(=O)O; Tyr(3-OMe) = COc1cc(C[C@H](N)C(=O)O)ccc1O; Phe(4-F) = N[C@@H](Cc1ccc(F)cc1)C(=O)O; Nle = CCCC[C@H](N)C(=O)O
Assays:
[1] = system: guinea pig tracheal smooth muscle; experiment: Tracheal relaxant activity of VIP analogs on isolated guinea pig tracheal rings; type: cell-based; conditions: cumulative concentration response, relaxation as % of maximum response to VIP (10^-6 M=100%), three tissues pooled, linear regression
Procedure, shortened: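 Male guinea pig tracheal rings under 1.5 g resting tension in Krebs at 37° C, 95% O2/5% CO2, isometric tension. Cumulative concentration-response curves; relaxation as % of response to 10^-6 M VIP added at end; three tissues pooled, EC50 by linear regression.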

guinea pigs = experiment: In vivo bronchodilator activity by tracheal instillation against histamine challenge; design: species or system guinea pig; conditions: anesthetized male guinea pigs, inhibition of histamine (i.v.)-induced rise in tracheal pressure
Method: The in vivo bronchodilator activity of VIP and VIP analogs in guinea pigs was assessed by the tracheal instillation route of administration. This technique utilized male guinea pigs (Hartley strain, Charles River) weighing 400-600 g. Animals were anesthetized with urethane (2 g/kg) intraperitoneally and a polyethylene cannula was inserted into the jugular vein for intraveneous drug administration.
The animals were tracheotomized and dosing solutions of distilled water or test compound dissolved in distilled water were administered into the trachea, approximately three-quarters the distance to the carina with a pipette. The concentration of the dosing solution was adjusted to deliver a constant volume of […]. The animals were placed supine for one minute to aid drug delivery to the lung. One minute later, spontaneous breathing was arrested with succinylcholine chloride (1.2 mg/kg) administered intraveneously, and the animals were ventilated with a HARVARD Model 680 small animal respirator set at 40 breaths/min and 4.0 cm^3 stroke volume. The animals were challenged with a maximal constrictory dose of histamine ([…], i.v.) and tracheal pressure (cm of water) was recorded from a STATHAM pressure transducer (P 32 AA).
The change in tracheal pressure was averaged for at least 3 control and 3 drug-treated animals and percent inhibition was calculated. The relative potency of compounds administered by the instillation route was determined by administering various doses of test compound and calculating the median effective dose (ED50 value). The ED50 was determined from log dose-response curves generated by at least 3 doses that caused inhibitory effects between 10% and 90%. The correlation coefficients for the regression line of each compound was always greater than 0.95.
For determination of the time course of inhibition for various compounds, the time between administration of compound and challenge with histamine was varied. The time course of activity was calculated as the time when inhibition decreased to 40%.
The results summarized in Table II show the in vivo bronchodilator activity of the VIP analogs in comparison to native VIP.

Structure (SMILES) | EC50 [1] [pM] | Bronchodilator activity of VIP analogs in guinea pigs, ED50 (guinea pigs) [μg]
CCCC[C@H](NC(=O)[C@H](CCC(N)=O)NC(=O)[C@H](CCCCN)NC(=O)[C@H](CCCNC(=N)N)NC(=O)[C@H](CC(C)C)NC(=O)[C@H](CCCCN)NC(=O)[C@@H](NC(=O)[C@H](Cc1ccc(O)cc1)NC(=O)[C@H](CC(N)=O)NC(=O)[C@H](CCC(=O)O)NC(=O)[C@@H](NC(=O)[C@H](Cc1ccc(F)cc1)NC(=O)[C@@H](NC(=O)[C@H](C)NC(=O)[C@H](CC(=O)O)NC(=O)[C@H](CO)NC(=O)[C@H](Cc1c[nH]cn1)NC(C)=O)C(C)C)[C@@H](C)O)[C@@H](C)O)C(=O)N[C@@H](C)C(=O)N[C@@H](C)C(=O)N[C@@H](CCCCN)C(=O)N[C@H]1CCCCNC(=O)C[C@@H](C(=O)N[C@@H](CC(C)C)C(=O)N[C@@H](CCCCN)C(=O)N[C@@H](CCCCN)C(N)=O)NC(=O)[C@H](CC(N)=O)NC(=O)[C@H](CC(C)C)NC(=O)[C@H](Cc2ccc(O)cc2)NC1=O [SEQ ID NO:45, Ac-[p-F-Phe^6,Glu^8,Lys^12,Nle^17,Ala^19,Asp^25,Leu^26,Lys^27,28]-VIP cyclo (Lys^21 →Asp^25)] (Ac-HSDAV[Phe(4-F)]TENYTKLRKQ[Nle]AAKKYLNDLKK-NH2; lactam 21-25) | 470 | 0.026
CC(=O)N[C@@H](Cc1c[nH]cn1)C(=O)N[C@@H](CO)C(=O)N[C@@H](CC(=O)O)C(=O)N[C@@H](C)C(=O)N[C@H](C(=O)N[C@@H](Cc1ccccc1)C(=O)N[C@H](C(=O)N[C@@H](CCC(=O)O)C(=O)N[C@@H](CC(N)=O)C(=O)N[C@@H](Cc1ccc(O)cc1)C(=O)N[C@H](C(=O)N[C@@H](CCCCN)C(=O)N[C@@H](CC(C)C)C(=O)N[C@@H](CCCNC(=N)N)C(=O)N[C@@H](CCCCN)C(=O)N[C@@H](C)C(=O)N[C@@H](C)C(=O)N[C@@H](C)C(=O)N[C@@H](C)C(=O)N[C@@H](CCCCN)C(=O)N[C@H]1CCCCNC(=O)C[C@@H](C(=O)N[C@@H](CC(C)C)C(=O)N[C@@H](CCCCN)C(=O)N[C@@H](CCCCN)C(N)=O)NC(=O)[C@H](C)NC(=O)[C@H](CC(C)C)NC(=O)[C@H](Cc2ccc(O)cc2)NC1=O)[C@@H](C)O)[C@@H](C)O)C(C)C [SEQ ID NO:64, Ac-[Glu^8,Lys^12,Ala^16,17,19,Ala^24,Asp^25,Leu^26,Lys^27,28]-VIP cyclo (Lys^21 →Asp^25)] (Ac-HSDAVFTENYTKLRKAAAAKKYLADLKK-NH2; lactam 21-25) | 220 | 0.13
CCCC[C@H](NC(=O)[C@H](CCC(N)=O)NC(=O)[C@H](CCCCN)NC(=O)[C@H](CCCNC(=N)N)NC(=O)[C@H](CC(C)C)NC(=O)[C@H](CCCCN)NC(=O)[C@@H](NC(=O)[C@H](Cc1ccc(O)cc1)NC(=O)[C@H](CC(N)=O)NC(=O)[C@H](CCC(=O)O)NC(=O)[C@@H](NC(=O)[C@H](Cc1ccccc1)NC(=O)[C@@H](NC(=O)[C@H](C)NC(=O)[C@H](CC(=O)O)NC(=O)[C@H](C)NC(=O)[C@H](Cc1c[nH]cn1)NC(C)=O)C(C)C)[C@@H](C)O)[C@@H](C)O)C(=O)N[C@@H](C)C(=O)N[C@H](C(=O)N[C@@H](CCCCN)C(=O)N[C@H]1CCCCNC(=O)C[C@@H](C(=O)N[C@@H](CC(C)C)C(=O)N[C@@H](CCCCN)C(=O)N[C@@H](CCCCN)C(=O)NCC(=O)NCC(=O)N[C@H](C(N)=O)[C@@H](C)O)NC(=O)[C@H](CC(N)=O)NC(=O)[C@H](CC(C)C)NC(=O)[C@H](Cc2ccc(O)cc2)NC1=O)C(C)C [SEQ ID NO:67, Ac-[Ala^2,Glu^8,Lys^12,Nle^17,Asp^25,Leu^26,Lys^27,28,Gly^29,30,Thr^31]-VIP cyclo (Lys^21 →Asp^25)] (Ac-HADAVFTENYTKLRKQ[Nle]AVKKYLNDLKKGGT-NH2; lactam 21-25) | 190 | 0.077

The remaining molecules from weak to strong by EC50 [1], led by results:

EC50 [1] [pM] | Structure (SMILES) | Bronchodilator activity of VIP analogs in guinea pigs, ED50 (guinea pigs) [μg]
700 | CCCC[C@H](NC(=O)[C@H](CCC(N)=O)NC(=O)[C@H](CCCCN)NC(=O)[C@H](CCCNC(=N)N)NC(=O)[C@H](CC(C)C)NC(=O)[C@H](CCCCN)NC(=O)[C@@H](NC(=O)[C@H](Cc1ccc(O)cc1)NC(=O)[C@H](CC(N)=O)NC(=O)[C@H](CC(=O)O)NC(=O)[C@@H](NC(=O)[C@H](Cc1ccccc1)NC(=O)[C@@H](NC(=O)[C@H](C)NC(=O)[C@H](CC(=O)O)NC(=O)[C@H](CO)NC(=O)[C@H](Cc1c[nH]cn1)NC(C)=O)C(C)C)[C@@H](C)O)[C@@H](C)O)C(=O)N[C@@H](C)C(=O)N[C@@H](C)C(=O)N[C@@H](CCCCN)C(=O)N[C@H]1CCCCNC(=O)C[C@@H](C(=O)N[C@H](C(=O)N[C@@H](CC(C)C)C(=O)N[C@H](C(N)=O)[C@@H](C)O)C(C)C)NC(=O)[C@H](CC(N)=O)NC(=O)[C@H](CC(C)C)NC(=O)[C@H](Cc2ccc(O)cc2)NC1=O [SEQ ID NO:29, Ac-[Lys^12,Nle^17,Ala^19,Asp^25,Val^26,Thr^28]-VIP cyclo (Lys^21 →Asp^25)] (Ac-HSDAVFTDNYTKLRKQ[Nle]AAKKYLNDVLT-NH2; lactam 21-25) | 0.34
520 | CCCC[C@H](NC(=O)[C@H](CCC(N)=O)NC(=O)[C@H](CCCCN)NC(=O)[C@H](CCCNC(=N)N)NC(=O)[C@H](CC(C)C)NC(=O)[C@H](CCCCN)NC(=O)[C@@H](NC(=O)[C@H](Cc1ccc(O)cc1)NC(=O)[C@H](CC(N)=O)NC(=O)[C@H](CC(=O)O)NC(=O)[C@@H](NC(=O)[C@H](Cc1ccccc1)NC(=O)[C@@H](NC(=O)[C@H](C)NC(=O)[C@H](CC(=O)O)NC(=O)[C@H](CO)NC(=O)[C@H](Cc1c[nH]cn1)NC(C)=O)C(C)C)[C@@H](C)O)[C@@H](C)O)C(=O)N[C@@H](C)C(=O)N[C@@H](C)C(=O)N[C@@H](CCCCN)C(=O)N[C@H]1CCCCNC(=O)C[C@@H](C(=O)N[C@H](C(=O)N[C@@H](CC(C)C)C(=O)N[C@H](C(N)=O)[C@@H](C)O)C(C)C)NC(=O)[C@H](CC(N)=O)NC(=O)[C@H](CC(C)C)NC(=O)[C@H](Cc2ccc(O)c(F)c2)NC1=O [SEQ ID NO:56, Ac-[Lys^12,Nle^17,Ala^19,m-F-L-Tyr^22,Asp^25,Val^26,Thr^28]-VIP cyclo (Lys^21 →Asp^25)] (Ac-HSDAVFTDNYTKLRKQ[Nle]AAKK[Tyr(3-F)]LNDVLT-NH2; lactam 21-25) | 7.2
310 | CCCC[C@H](NC(=O)[C@H](CCC(N)=O)NC(=O)[C@H](CCCCN)NC(=O)[C@H](CCCNC(=N)N)NC(=O)[C@H](CC(C)C)NC(=O)[C@H](CCCCN)NC(=O)[C@@H](NC(=O)[C@H](Cc1ccc(O)cc1)NC(=O)[C@H](CC(N)=O)NC(=O)[C@H](CCC(=O)O)NC(=O)[C@@H](NC(=O)[C@H](Cc1ccccc1)NC(=O)[C@@H](NC(=O)[C@H](C)NC(=O)[C@H](CC(=O)O)NC(=O)[C@H](CO)NC(=O)[C@H](Cc1c[nH]cn1)NC(C)=O)C(C)C)[C@@H](C)O)[C@@H](C)O)C(=O)N[C@@H](C)C(=O)N[C@@H](C)C(=O)N[C@@H](CCCCN)C(=O)N[C@H]1CCCCNC(=O)C[C@@H](C(=O)N[C@@H](CC(C)C)C(=O)N[C@@H](CCCCN)C(=O)N[C@@H](CCCCN)C(N)=O)NC(=O)[C@H](CC(N)=O)NC(=O)[C@H](CC(C)C)NC(=O)[C@H](Cc2ccc(O)c(F)c2)NC1=O [SEQ ID NO:58, Ac-[Glu^8,Lys^12,Nle^17,Ala^19,m-F-L-Tyr^22,Asp^25,Leu^26,Lys^27,28]-VIP cyclo (Lys^21 →Asp^25)] (Ac-HSDAVFTENYTKLRKQ[Nle]AAKK[Tyr(3-F)]LNDLKK-NH2; lactam 21-25) | 0.03
310 | CCCC[C@H](NC(=O)[C@H](CCC(N)=O)NC(=O)[C@H](CCCCN)NC(=O)[C@H](CCCNC(=N)N)NC(=O)[C@H](CC(C)C)NC(=O)[C@H](CCCCN)NC(=O)[C@@H](NC(=O)[C@H](Cc1ccc(O)cc1)NC(=O)[C@H](CC(N)=O)NC(=O)[C@H](CC(=O)O)NC(=O)[C@@H](NC(=O)[C@H](Cc1ccccc1)NC(=O)[C@@H](NC(=O)[C@H](C)NC(=O)[C@H](CC(=O)O)NC(=O)[C@H](CO)NC(=O)[C@H](Cc1c[nH]cn1)NC(C)=O)C(C)C)[C@@H](C)O)[C@@H](C)O)C(=O)N[C@@H](C)C(=O)N[C@@H](C)C(=O)N[C@@H](CCCCN)C(=O)N[C@H]1CCCCNC(=O)C[C@@H](C(=O)N[C@H](C(=O)N[C@@H](CC(C)C)C(=O)N[C@H](C(N)=O)[C@@H](C)O)C(C)C)NC(=O)[C@H](CC(N)=O)NC(=O)[C@H](CC(C)C)NC(=O)[C@H](Cc2ccc(O)c(OC)c2)NC1=O [SEQ ID NO:55, Ac-[Lys^12,Nle^17,Ala^19,m-OCH3 -Tyr^22,Asp^25,Val^26,Thr^28]-VIP cyclo (Lys^21 →Asp^25)] (Ac-HSDAVFTDNYTKLRKQ[Nle]AAKK[Tyr(3-OMe)]LNDVLT-NH2; lactam 21-25) | 0.14

— patent publication US5677419A, “Cyclic vasoactive peptide analogs” (Hoffmann-La Roche Inc., priority 1994, dated 1997)
